We go through 26 compounds from US11479559B2, “Urea-substituted aromatic ring-linked dioxinoquinoline compounds, preparation method and uses thereof” (BEIJING SCITECH-MQ PHARMACEUTICALS LIMITED, priority 2018, dated 2022).

One experiment has as its target RET tyrosine kinase (Homo sapiens (Human), UniProt P07949). Description: Assay of small molecular compounds for inhibiting the activity of RET kinase (LANCE TR-FRET).
Another experiment addresses VEGFR2 tyrosine kinase (Homo sapiens (Human), UniProt P35968). Nature of the experiment: Assay of small molecular compounds for inhibiting the activity of VEGFR-2 kinase (LANCE TR-FRET).

Where two headings read alike, the source gives them in different places.

Chain of RET tyrosine kinase (P07949 29-1114): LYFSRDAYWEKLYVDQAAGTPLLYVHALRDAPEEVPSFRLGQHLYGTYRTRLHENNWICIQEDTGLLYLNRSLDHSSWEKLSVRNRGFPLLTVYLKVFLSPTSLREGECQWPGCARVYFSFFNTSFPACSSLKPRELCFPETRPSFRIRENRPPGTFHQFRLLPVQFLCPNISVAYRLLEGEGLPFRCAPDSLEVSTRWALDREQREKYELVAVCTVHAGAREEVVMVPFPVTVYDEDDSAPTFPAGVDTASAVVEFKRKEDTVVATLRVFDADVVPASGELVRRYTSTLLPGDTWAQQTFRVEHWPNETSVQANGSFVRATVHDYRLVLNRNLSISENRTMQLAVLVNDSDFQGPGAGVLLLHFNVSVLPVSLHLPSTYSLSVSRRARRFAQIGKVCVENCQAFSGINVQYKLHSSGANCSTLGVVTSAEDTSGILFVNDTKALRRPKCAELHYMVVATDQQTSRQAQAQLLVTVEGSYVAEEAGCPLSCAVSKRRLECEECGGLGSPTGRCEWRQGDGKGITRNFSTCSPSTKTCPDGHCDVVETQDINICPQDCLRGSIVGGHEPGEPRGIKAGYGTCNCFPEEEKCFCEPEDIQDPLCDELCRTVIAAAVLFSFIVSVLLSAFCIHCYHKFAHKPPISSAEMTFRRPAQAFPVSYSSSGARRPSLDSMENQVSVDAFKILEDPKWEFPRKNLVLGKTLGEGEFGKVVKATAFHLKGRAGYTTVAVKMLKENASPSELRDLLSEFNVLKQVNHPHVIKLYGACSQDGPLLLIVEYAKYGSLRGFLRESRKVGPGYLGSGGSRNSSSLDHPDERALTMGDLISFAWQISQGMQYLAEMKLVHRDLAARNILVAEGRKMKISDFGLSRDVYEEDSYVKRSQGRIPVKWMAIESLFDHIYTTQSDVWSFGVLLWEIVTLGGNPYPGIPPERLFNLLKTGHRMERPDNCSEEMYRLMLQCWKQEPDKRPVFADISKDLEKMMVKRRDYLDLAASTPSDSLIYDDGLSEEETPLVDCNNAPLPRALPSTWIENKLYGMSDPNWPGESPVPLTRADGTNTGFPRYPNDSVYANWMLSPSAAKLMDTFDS
Chain of VEGFR2 tyrosine kinase (P35968 20-1356): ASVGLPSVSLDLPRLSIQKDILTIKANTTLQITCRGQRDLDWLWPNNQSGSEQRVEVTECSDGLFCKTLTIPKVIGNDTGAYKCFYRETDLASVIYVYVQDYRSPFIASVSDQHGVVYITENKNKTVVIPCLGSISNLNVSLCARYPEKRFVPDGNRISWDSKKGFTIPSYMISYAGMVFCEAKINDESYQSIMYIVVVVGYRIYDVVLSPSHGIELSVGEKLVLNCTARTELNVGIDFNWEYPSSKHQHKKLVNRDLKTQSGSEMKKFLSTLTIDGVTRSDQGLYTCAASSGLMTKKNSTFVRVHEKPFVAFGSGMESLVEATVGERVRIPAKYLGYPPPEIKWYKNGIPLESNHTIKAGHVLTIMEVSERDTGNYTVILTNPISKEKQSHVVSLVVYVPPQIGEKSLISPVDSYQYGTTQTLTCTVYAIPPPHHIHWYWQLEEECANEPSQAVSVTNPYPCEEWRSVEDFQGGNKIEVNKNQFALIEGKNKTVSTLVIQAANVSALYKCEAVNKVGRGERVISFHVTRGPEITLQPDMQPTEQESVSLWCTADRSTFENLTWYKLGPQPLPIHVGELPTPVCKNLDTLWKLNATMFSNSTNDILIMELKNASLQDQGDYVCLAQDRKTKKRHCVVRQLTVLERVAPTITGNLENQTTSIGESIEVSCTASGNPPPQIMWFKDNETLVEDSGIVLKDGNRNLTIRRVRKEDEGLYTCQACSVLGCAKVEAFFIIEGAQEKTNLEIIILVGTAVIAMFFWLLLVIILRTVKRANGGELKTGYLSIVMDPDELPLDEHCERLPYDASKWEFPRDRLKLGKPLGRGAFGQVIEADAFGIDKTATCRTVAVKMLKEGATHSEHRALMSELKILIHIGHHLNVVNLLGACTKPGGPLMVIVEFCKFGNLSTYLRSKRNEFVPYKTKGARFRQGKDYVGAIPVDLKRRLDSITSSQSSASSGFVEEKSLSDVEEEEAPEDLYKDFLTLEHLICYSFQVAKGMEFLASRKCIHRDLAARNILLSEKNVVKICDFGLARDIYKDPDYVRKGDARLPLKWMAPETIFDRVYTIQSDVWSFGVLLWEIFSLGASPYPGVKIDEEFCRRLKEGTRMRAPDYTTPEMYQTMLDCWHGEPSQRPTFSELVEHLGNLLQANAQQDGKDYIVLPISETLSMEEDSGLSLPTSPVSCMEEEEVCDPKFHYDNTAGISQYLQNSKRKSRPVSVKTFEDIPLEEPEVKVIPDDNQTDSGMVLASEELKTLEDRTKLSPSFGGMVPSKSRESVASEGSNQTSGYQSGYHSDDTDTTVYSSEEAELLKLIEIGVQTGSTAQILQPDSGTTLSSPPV
Procedure for VEGFR2 tyrosine kinase: The assay is based on the LANCE TR-FRET technology of Perkin Elmer Inc., and the assay method is as follows:
2.5 μL of the gradient-diluted compounds were taken with a transfer pipette to a 384-well plate.
Addition of enzyme: 5 μL of 2× VEGFR2 kinase solution (concentration was 0.5 nM) was taken with a transfer pipette to the corresponding reaction well of the 384-well plate, mixed well and pre-reacted at room temperature for 30 minutes.
2.5 μL 4× Ultra ULight™-JAK-1 (Tyr1023) Peptide (concentration was 200 nM)/ATP (concentration was 40 μMM) mixture was taken with a transfer pipette to the corresponding reaction well of the 384-well plate.
Negative control: 2.5 μL/well 4× substrate/ATP mixture and 7.5 μL 1× Kinase Assay Buffer were added to the wells of the 384-well plate.
The final concentration of DMSO in the reaction system was 4%.
The mixture was mixed well and then centrifuged and reacted at room temperature in dark for 60 min.
The 384-well plate was placed into the Envision plate reader and the signal was detected using the appropriate program.

In the case of `CC1(O)CCN(CCCOc2cc3nccc(Oc4ccc(NC(=O)Nc5ccc(Cl)c(C(F)(F)F)c5)cc4)c3c3c2OCCO3)CC1` [Example 25, 1-(4-chloro-3-(trifluoromethyl)phenyl)-3-(4-((5-(3-(4-hydroxy-4-methylpiperidin-1-yl)propoxy)-2,3-dihydro-[1,4]dioxino[2,3-f]quinolin-10-yl)oxy)phenyl)urea], the IC50 at RET tyrosine kinase (read-out: RET IC50) and at VEGFR2 tyrosine kinase (read-out: VEGFR-2 IC50) was less than 50 nM throughout.

On to `O=C(Nc1ccc(Oc2ccnc3cc(OCCO)c4c(c23)OCCO4)cc1)Nc1ccc(Cl)c(C(F)(F)F)c1` [Example 14, 1-(4-chloro-3-(trifluoromethyl)phenyl)-3-(4-((5-(2-hydroxyethoxy)-2,3-dihydro-[1,4]dioxino[2,3-f]quinolin-10-yl)oxy)phenyl)urea], for which the IC50 at RET tyrosine kinase (read-out: RET IC50) and on VEGFR2 tyrosine kinase (read-out: VEGFR-2 IC50) was less than 50 nM throughout.

In the case of `COc1cc2nccc(Oc3ccc(NC(=O)Nc4ccc(Cl)c(C(F)(F)F)c4)cc3)c2c2c1OCCO2` [Example 1, 1-(4-chloro-3-(trifluoromethyl)phenyl)-3-(4-((5-methoxy-2,3-dihydro-[1,4]dioxino[2,3-f]quinolin-10-yl)oxy)phenyl)urea], the IC50 at RET tyrosine kinase (read-out: RET IC50) and at VEGFR2 tyrosine kinase (read-out: VEGFR-2 IC50) was less than 50 nM throughout.

For the compound `N#CCCCOc1cc2nccc(Oc3ccc(NC(=O)Nc4ccc(Cl)c(C(F)(F)F)c4)cc3)c2c2c1OCCO2` [Example 94, 1-(4-chloro-3-(trifluoromethyl)phenyl)-3-(4-((5-(3-cyanopropoxy)-2,3-dihydro-[1,4]dioxino[2,3-f]quinolin-10-yl)oxy)phenyl)urea], the IC50 on RET tyrosine kinase (read-out: RET IC50) was less than 50 nM; against VEGFR2 tyrosine kinase it was 50 to 500 nM.

With `CC1(N)CCN(CCCOc2cc3nccc(Oc4ccc(NC(=O)NC5CC5)c(Cl)c4)c3c3c2OCCO3)CC1` [Example 61, 1-(4-((5-(3-(4-amino-4-methylpiperidin-1-yl)propoxy)-2,3-dihydro-[1,4]dioxino[2,3-f]quinolin-10-yl)oxy)-2-chlorophenyl)-3-cyclopropylurea], the half-inhibitory concentration (IC50) at RET tyrosine kinase (read-out: RET IC50) and at VEGFR2 tyrosine kinase (read-out: VEGFR-2 IC50) was less than 50 nM in each case.

For `COCCOc1cc2nccc(Oc3ccc(NC(=O)NC4CC4)c(Cl)c3)c2c2c1OCCO2` [Example 49, 1-(2-chloro-4-((5-(2-methoxyethoxy)-2,3-dihydro-[1,4]dioxino[2,3-f]quinolin-10-yl)oxy)phenyl)-3-cyclopropylurea], the half-maximal inhibitory concentration (IC50) at RET tyrosine kinase (read-out: RET IC50) and on VEGFR2 tyrosine kinase (read-out: VEGFR-2 IC50) was less than 50 nM throughout.

With `O=C(Nc1ccc(Oc2ccnc3cc(OCCO)c4c(c23)OCCO4)cc1Cl)NC1CC1` [Example 48, 1-(2-chloro-4-((5-(2-hydroxyethoxy)-2,3-dihydro-[1,4]dioxino[2,3-f]quinolin-10-yl)oxy)phenyl)-3-cyclopropylurea], the IC50 at RET tyrosine kinase (read-out: RET IC50) and on VEGFR2 tyrosine kinase (read-out: VEGFR-2 IC50) was less than 50 nM each time.

Take `CN1CCN(CCCOc2cc3nccc(Oc4ccc(NC(=O)Nc5ccc(Cl)c(C(F)(F)F)c5)cc4)c3c3c2OCCO3)CC1` [Example 21, 1-(4-chloro-3-(trifluoromethyl)phenyl)-3-(4-((5-(3-(4-methylpiperazin-1-yl)propoxy)-2,3-dihydro-[1,4]dioxino[2,3-f]quinolin-10-yl)oxy)phenyl)urea]: the IC50 at RET tyrosine kinase (read-out: RET IC50) and at VEGFR2 tyrosine kinase (read-out: VEGFR-2 IC50) was less than 50 nM throughout.

With `COCCN(C)CCCOc1cc2nccc(Oc3ccc(NC(=O)NC4CC4)c(Cl)c3)c2c2c1OCCO2` [Example 62, 1-(2-chloro-4-((5-(3-((2-methoxyethyl)(methyl)amino)propoxy)-2,3-dihydro-[1,4]dioxino[2,3-f]quinolin-10-yl)oxy)phenyl)-3-cyclopropylurea], the IC50 on RET tyrosine kinase (read-out: RET IC50) and on VEGFR2 tyrosine kinase (read-out: VEGFR-2 IC50) was less than 50 nM each time.

As for `CCCNC(=O)Nc1ccc(Oc2ccnc3cc(OC)c4c(c23)OCCO4)cc1Cl` [Example 81, 1-(2-chloro-4-((5-methoxy-2,3-dihydro-[1,4]dioxino[2,3-f]quinolin-10-yl)oxy)phenyl)-3-propylurea], the IC50 on RET tyrosine kinase (read-out: RET IC50) and at VEGFR2 tyrosine kinase (read-out: VEGFR-2 IC50) was less than 50 nM in each case.

Turning to `CNC(=O)Nc1ccc(Oc2ccnc3cc(OCCCN4CCOCC4)c4c(c23)OCCO4)cc1Cl` [Example 85, 1-(2-chloro-4-((5-(3-morpholinopropoxy)-2,3-dihydro-[1,4]dioxino[2,3-f]quinolin-10-yl)oxy)phenyl)-3-methylurea], the IC50 against RET tyrosine kinase and on VEGFR2 tyrosine kinase was less than 50 nM each time.

As for `O=C(Nc1ccc(Oc2ccnc3cc(OC4CCOC4)c4c(c23)OCCO4)cc1Cl)NC1CC1` (stereo not shown) [Example 66, 1-(2-chloro-4-((5-((tetrahydrofuran-3-yl)oxy)-2,3-dihydro-[1,4]dioxino[2,3-f]quinolin-10-yl)oxy)phenyl)-3-cyclopropylurea], the IC50 on RET tyrosine kinase (read-out: RET IC50) and on VEGFR2 tyrosine kinase (read-out: VEGFR-2 IC50) was less than 50 nM each time.

Turning to `CN(CCCOc1cc2nccc(Oc3ccc(NC(=O)NC4CC4)c(Cl)c3)c2c2c1OCCO2)C1CCC1` [Example 63, 1-(2-chloro-4-((5-(3-(cyclobutyl(methyl)amino)propoxy)-2,3-dihydro-[1,4]dioxino[2,3-f]quinolin-10-yl)oxy)phenyl)-3-cyclopropylurea], the 50% inhibitory concentration (IC50) at RET tyrosine kinase (read-out: RET IC50) and on VEGFR2 tyrosine kinase (read-out: VEGFR-2 IC50) was less than 50 nM throughout.

Take `O=C(Nc1ccc(Oc2ccnc3cc(OCCCN4CCOCC4)c4c(c23)OCCO4)cc1Cl)NC1CC1` [Example 55, 1-(2-chloro-4-((5-(3-morpholinopropoxy)-2,3-dihydro-[1,4]dioxino[2,3-f]quinolin-10-yl)oxy)phenyl)-3-cyclopropylurea]: the 50% inhibitory concentration (IC50) on RET tyrosine kinase (read-out: RET IC50) and on VEGFR2 tyrosine kinase (read-out: VEGFR-2 IC50) was less than 50 nM each time.

As to `CCNC(=O)Nc1ccc(Oc2ccnc3cc(OC)c4c(c23)OCCO4)cc1Cl` [Example 80, 1-(2-chloro-4-((5-methoxy-2,3-dihydro-[1,4]dioxino[2,3-f]quinolin-10-yl)oxy)phenyl)-3-ethylurea], the IC50 at RET tyrosine kinase (read-out: RET IC50) and at VEGFR2 tyrosine kinase (read-out: VEGFR-2 IC50) was less than 50 nM throughout.

Regarding `CN(C)CCCOc1cc2nccc(Oc3ccc(NC(=O)Nc4ccc(Cl)c(C(F)(F)F)c4)cc3)c2c2c1OCCO2` [Example 17, 1-(4-chloro-3-(trifluoromethyl)phenyl)-3-(4-((5-(3-(dimethylamino)propoxy)-2,3-dihydro-[1, 4]dioxino[2,3-f]quinolin-10-yl)oxy)phenyl)urea], the 50% inhibitory concentration (IC50) at RET tyrosine kinase (read-out: RET IC50) and at VEGFR2 tyrosine kinase (read-out: VEGFR-2 IC50) was less than 50 nM throughout.

With `CN(C)CCCOc1cc2nccc(Oc3ccc(NC(=O)NC4CC4)c(Cl)c3)c2c2c1OCCO2` [Example 52, 1-(2-chloro-4-((5-(3-(dimethylamino)propoxy)-2,3-dihydro-[1,4]dioxino[2,3-f]quinolin-10-yl)oxy)phenyl)-3-cyclopropylurea], the IC50 at RET tyrosine kinase (read-out: RET IC50) and at VEGFR2 tyrosine kinase (read-out: VEGFR-2 IC50) was less than 50 nM each time.

`CCCNC(=O)Nc1ccc(Oc2ccnc3cc(OCCCN4CCOCC4)c4c(c23)OCCO4)cc1Cl` [Example 87, 1-(2-chloro-4-((5-(3-morpholinopropoxy)-2,3-dihydro-[1,4]dioxino[2,3-f]quinolin-10-yl)oxy)phenyl)-3-prop ylurea]: the IC50 against RET tyrosine kinase and against VEGFR2 tyrosine kinase was less than 50 nM each time.

Take `CN(C)CCCCCCOc1cc2nccc(Oc3ccc(NC(=O)NC4CC4)c(Cl)c3)c2c2c1OCCO2` [Example 64, 1-(2-chloro-4-((5-((6-(dimethylamino)hexyl)oxy)-2,3-dihydro-[1,4]dioxino[2,3-f]quinolin-10-yl)oxy)phenyl)-3-cyclopropylurea]: the IC50 at RET tyrosine kinase (read-out: RET IC50) and at VEGFR2 tyrosine kinase (read-out: VEGFR-2 IC50) was less than 50 nM in each case.

`O=C(Nc1ccc(Oc2ccnc3cc(OCCCN4CCCCC4)c4c(c23)OCCO4)cc1Cl)NC1CC1` [Example 54, 1-(2-chloro-4-((5-(3-(piperidin-1-yl)propoxy)-2,3-dihydro-[1,4]dioxino[2,3-f]quinolin-10-yl)oxy)phenyl)-3-cyclopropylurea]: the IC50 at RET tyrosine kinase (read-out: RET IC50) and on VEGFR2 tyrosine kinase (read-out: VEGFR-2 IC50) was less than 50 nM in each case.

For the compound `COc1cc2nccc(Oc3ccc(NC(=O)Nc4cc(C(F)(F)F)ccc4C)cc3)c2c2c1OCCO2` [Example 95, 1-(4-((5-methoxy-2,3-dihydro-[1,4]dioxino[2,3-f]quinolin-10-yl)oxy)phenyl)-3-(2-methyl-5-(trifluoromethyl)phenyl)urea], the IC50 on RET tyrosine kinase (read-out: RET IC50) and on VEGFR2 tyrosine kinase (read-out: VEGFR-2 IC50) was less than 50 nM each time.

With `O=C(Nc1ccc(Oc2ccnc3cc(OCCCO)c4c(c23)OCCO4)cc1Cl)NC1CC1` [Example 50, 1-(2-chloro-4-((5-(3-hydroxypropoxy)-2,3-dihydro-[1,4]dioxino[2,3-f]quinolin-10-yl)oxy)phenyl)-3-cyclopropylurea], the IC50 at RET tyrosine kinase (read-out: RET IC50) and at VEGFR2 tyrosine kinase (read-out: VEGFR-2 IC50) was less than 50 nM each time.

As for `COc1cc2nccc(Oc3ccc(NC(=O)NC4CC4)c(F)c3)c2c2c1OCCO2` [Example 84, 1-cyclopropyl-3-(2-fluoro-4-((5-methoxy-2,3-dihydro-[1,4]dioxino[2,3-f]quinolin-10-yl)oxy)phenyl)urea], the IC50 on RET tyrosine kinase and against VEGFR2 tyrosine kinase was less than 50 nM throughout.

With `CC1(N)CCN(CCCOc2cc3nccc(Oc4ccc(NC(=O)Nc5ccc(Cl)c(C(F)(F)F)c5)cc4)c3c3c2OCCO3)CC1` [Example 26, 1-(4-((5-(3-(4-amino-4-methylpiperidin-1-yl)propoxy)-2,3-dihydro-[1,4]dioxino[2,3-f]quinolin-10-yl)oxy)phenyl)-3-(4-chloro-3-(trifluoromethyl)phenyl)urea], the IC50 at RET tyrosine kinase (read-out: RET IC50) and on VEGFR2 tyrosine kinase (read-out: VEGFR-2 IC50) was less than 50 nM throughout.

As to `CC(=O)N1CCN(CCCOc2cc3nccc(Oc4ccc(NC(=O)NC5CC5)c(Cl)c4)c3c3c2OCCO3)CC1` [Example 57, 1-(4-((5-(3-(4-acetylpiperazin-1-yl)propoxy)-2,3-dihydro-[1,4]dioxino[2,3-f]quinolin-10-yl)oxy)-2-chlorophenyl)-3-cyclopropylurea], the IC50 on RET tyrosine kinase (read-out: RET IC50) and at VEGFR2 tyrosine kinase (read-out: VEGFR-2 IC50) was less than 50 nM each time.

Turning to `COCCOc1cc2nccc(Oc3ccc(NC(=O)NC4CC4)c(F)c3)c2c2c1OCCO2` [Example 91, 1-cyclopropyl-3-(2-fluoro-4-((5-(2-methoxyethoxy)-2,3-dihydro-[1,4]dioxino[2,3-f]quinolin-10-yl)oxy)phenyl)urea], the IC50 at RET tyrosine kinase (read-out: RET IC50) and on VEGFR2 tyrosine kinase (read-out: VEGFR-2 IC50) was less than 50 nM in each case.
